Data: patent US20210276987A1, “PHARMACEUTICAL AGENTS FOR USE IN SMOKING AND TOBACCO CESSATION” (Washington State University, priority 2018, published 2021)
Structures can show the parent of a compound that is named as a salt. Where two headings read alike, the source gives them in different places.

Columns and labels:
CYP2A6 [1] = molecular target: T1, CYP2A6 (Homo sapiens, UniProt P11509); settings: for IC50: both, human, microsomes, pH 7.4
T1 sequence (P11509 1-494): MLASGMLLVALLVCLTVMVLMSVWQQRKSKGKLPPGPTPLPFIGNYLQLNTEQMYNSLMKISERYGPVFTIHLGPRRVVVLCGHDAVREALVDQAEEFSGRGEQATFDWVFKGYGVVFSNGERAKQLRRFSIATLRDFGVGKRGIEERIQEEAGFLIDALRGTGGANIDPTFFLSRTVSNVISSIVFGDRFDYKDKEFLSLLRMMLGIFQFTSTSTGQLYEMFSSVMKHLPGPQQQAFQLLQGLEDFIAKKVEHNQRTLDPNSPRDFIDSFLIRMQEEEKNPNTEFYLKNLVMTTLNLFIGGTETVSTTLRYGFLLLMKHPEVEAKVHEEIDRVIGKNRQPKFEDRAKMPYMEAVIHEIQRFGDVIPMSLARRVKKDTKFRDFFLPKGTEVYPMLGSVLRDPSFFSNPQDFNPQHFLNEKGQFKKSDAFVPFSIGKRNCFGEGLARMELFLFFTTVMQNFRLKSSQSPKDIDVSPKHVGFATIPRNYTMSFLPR

CYP2A6 [2] = molecular target: T1, CYP2A6; assay: biochemical
UGT2B10 = molecular target: T2, UGT2B10 (Homo sapiens, UniProt P36537); assay: biochemical
T2 sequence (P36537 24-528): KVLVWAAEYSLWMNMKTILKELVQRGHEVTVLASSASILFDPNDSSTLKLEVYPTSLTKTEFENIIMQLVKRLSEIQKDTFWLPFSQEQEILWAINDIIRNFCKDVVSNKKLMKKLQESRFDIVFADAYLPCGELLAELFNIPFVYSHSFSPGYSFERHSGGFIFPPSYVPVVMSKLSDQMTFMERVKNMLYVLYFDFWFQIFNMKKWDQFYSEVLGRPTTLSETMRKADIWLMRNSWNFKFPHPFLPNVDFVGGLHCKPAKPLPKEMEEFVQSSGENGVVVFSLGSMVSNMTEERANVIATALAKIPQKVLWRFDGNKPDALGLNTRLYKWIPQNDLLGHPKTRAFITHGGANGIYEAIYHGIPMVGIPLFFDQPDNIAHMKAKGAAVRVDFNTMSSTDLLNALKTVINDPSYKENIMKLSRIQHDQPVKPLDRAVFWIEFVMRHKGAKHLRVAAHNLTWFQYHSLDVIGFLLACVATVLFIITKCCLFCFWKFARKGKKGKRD
Description: Initial screening assays were performed as described above for the CYP assays using 1 μM or 10 μM of each of the NAs. The inhibitory effects of each agent against UGT2B10 was performed using the known UGT2B10-specific probe substrate, nicotine, in pooled human liver microsomes. […] Pre-incubations containing 500 μM nicotine and 1 or 10 μM NA were subsequently performed at 37° C. in 50 mM Tris-HCl buffer (pH 7.5, in a final volume of 50 μL) and 10 mM MgCl2 for 5 minutes.

in vitro = settings: for T1/2 (min) in human liver microsomes / half-life (T1/2) in human liver microsomes: pH 7.4; for half-life at 10 μM: human, microsomes
Description: In vitro stability studies. […] Half-lives were calculated using the one-phase exponential decay equation (GraphPad).

CYP2A6 [3] = molecular target: T1, CYP2A6; assay: in vitro; settings: both, microsomes, pH 7.4, IC50 against CYP2A6 (μM)
CYP2C8 = molecular target: T3, CYP2C8 (Homo sapiens, UniProt P10632)
T3 sequence (P10632 1-490): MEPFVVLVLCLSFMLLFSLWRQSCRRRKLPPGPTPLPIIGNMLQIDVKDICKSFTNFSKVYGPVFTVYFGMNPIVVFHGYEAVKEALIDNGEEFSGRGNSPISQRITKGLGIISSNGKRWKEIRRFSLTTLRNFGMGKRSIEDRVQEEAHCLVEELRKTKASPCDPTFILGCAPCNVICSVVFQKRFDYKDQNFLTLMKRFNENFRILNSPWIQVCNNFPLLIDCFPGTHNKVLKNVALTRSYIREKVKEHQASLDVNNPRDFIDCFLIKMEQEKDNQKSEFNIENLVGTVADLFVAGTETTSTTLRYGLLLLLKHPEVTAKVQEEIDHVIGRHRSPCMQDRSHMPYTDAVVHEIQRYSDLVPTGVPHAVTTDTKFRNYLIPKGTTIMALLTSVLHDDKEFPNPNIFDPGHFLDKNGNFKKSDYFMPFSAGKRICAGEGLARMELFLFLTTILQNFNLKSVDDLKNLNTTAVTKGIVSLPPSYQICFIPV

[4] = tested on: CYPs 1A2, 2B6, 2C8, 2C9, 2C19, 2D6, 2E1 and 3A4
CYP2E1 = CYP2E1 (Homo sapiens, UniProt P05181)
Chain of CYP2E1 (P05181 whole entry): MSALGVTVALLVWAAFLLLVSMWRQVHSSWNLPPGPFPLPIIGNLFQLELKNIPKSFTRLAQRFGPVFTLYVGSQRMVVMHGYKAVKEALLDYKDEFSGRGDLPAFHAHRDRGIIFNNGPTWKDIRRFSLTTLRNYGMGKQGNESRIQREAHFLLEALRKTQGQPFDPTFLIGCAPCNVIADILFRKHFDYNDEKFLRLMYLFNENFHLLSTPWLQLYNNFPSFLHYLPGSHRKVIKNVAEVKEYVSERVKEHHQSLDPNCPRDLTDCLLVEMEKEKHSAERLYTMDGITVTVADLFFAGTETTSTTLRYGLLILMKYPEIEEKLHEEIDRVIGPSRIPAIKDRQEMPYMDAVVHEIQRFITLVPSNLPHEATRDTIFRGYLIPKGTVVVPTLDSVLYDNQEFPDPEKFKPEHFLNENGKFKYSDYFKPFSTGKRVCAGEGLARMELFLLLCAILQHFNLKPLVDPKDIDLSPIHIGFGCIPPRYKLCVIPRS

CYP1A2 [5] = molecular target: T4, CYP1A2 (Homo sapiens, UniProt P05177); settings: both, microsomes, pH 7.4
T4 sequence (P05177 1-516): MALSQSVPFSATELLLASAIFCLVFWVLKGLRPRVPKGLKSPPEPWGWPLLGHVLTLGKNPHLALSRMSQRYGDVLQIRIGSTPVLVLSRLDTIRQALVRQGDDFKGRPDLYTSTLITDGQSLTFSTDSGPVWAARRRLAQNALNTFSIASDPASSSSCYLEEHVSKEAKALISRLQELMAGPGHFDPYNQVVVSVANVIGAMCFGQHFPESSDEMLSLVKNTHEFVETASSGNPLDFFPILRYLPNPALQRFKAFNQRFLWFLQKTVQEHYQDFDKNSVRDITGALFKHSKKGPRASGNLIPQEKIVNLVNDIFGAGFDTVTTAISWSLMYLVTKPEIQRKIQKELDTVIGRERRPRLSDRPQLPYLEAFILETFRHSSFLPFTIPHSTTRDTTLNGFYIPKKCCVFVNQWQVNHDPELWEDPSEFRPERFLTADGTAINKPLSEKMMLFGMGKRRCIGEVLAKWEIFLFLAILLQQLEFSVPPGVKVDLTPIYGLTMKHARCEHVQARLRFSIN

CYP2C9 = CYP2C9 (Homo sapiens, UniProt P11712); assay: CYP2C9 inhibition assay, human liver microsomes, diclofenac probe (cocktail)
Chain of CYP2C9 (P11712 whole entry): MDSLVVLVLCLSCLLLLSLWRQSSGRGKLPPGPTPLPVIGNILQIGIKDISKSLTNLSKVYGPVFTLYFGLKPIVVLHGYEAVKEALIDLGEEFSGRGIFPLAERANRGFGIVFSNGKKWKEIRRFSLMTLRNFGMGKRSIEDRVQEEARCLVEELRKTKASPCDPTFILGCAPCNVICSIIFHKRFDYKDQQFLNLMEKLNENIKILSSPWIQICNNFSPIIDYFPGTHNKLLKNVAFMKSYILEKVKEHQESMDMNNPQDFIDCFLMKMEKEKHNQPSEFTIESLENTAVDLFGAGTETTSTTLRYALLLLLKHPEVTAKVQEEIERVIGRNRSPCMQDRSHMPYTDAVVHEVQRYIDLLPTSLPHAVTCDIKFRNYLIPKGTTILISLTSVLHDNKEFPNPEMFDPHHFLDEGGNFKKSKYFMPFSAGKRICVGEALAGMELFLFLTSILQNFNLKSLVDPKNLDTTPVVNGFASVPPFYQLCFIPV

CYP2B6 = molecular target: T5, CYP2B6 (Homo sapiens, UniProt P20813)
T5 sequence (P20813 1-491): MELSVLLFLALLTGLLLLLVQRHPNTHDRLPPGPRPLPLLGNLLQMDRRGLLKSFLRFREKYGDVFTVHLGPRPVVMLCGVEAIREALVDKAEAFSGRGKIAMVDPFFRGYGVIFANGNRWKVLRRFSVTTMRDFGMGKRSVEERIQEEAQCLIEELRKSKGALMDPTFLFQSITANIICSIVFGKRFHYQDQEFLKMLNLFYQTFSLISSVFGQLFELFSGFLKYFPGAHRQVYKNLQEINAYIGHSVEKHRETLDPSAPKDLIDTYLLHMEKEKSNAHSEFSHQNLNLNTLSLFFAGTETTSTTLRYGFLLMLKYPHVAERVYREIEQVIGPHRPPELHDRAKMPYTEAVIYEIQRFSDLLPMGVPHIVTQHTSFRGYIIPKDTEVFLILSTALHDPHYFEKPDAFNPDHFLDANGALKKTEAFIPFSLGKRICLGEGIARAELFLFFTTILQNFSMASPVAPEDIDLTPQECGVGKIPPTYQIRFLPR

CYP2C19 = CYP2C19 (Homo sapiens, UniProt P33261); assay: CYP2C19 inhibition assay, human liver microsomes, omeprazole probe (cocktail)
Chain of CYP2C19 (P33261 whole entry): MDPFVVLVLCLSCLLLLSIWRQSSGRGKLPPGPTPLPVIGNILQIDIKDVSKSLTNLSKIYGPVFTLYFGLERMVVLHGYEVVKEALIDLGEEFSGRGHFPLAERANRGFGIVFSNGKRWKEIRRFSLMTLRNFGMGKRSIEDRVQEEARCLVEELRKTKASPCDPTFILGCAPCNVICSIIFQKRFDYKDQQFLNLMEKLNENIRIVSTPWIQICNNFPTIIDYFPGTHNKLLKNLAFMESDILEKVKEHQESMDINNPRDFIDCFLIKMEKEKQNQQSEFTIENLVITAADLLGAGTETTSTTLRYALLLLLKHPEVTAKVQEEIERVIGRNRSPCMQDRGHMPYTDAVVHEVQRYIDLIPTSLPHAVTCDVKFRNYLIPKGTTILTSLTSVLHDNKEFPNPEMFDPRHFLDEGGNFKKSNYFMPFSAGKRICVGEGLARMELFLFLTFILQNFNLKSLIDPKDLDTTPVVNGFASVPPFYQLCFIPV

CYP2D6 = CYP2D6 (Homo sapiens, UniProt P10635); assay: CYP2D6 inhibition assay, human liver microsomes, dextromethorphan probe (cocktail)
Chain of CYP2D6 (P10635 whole entry): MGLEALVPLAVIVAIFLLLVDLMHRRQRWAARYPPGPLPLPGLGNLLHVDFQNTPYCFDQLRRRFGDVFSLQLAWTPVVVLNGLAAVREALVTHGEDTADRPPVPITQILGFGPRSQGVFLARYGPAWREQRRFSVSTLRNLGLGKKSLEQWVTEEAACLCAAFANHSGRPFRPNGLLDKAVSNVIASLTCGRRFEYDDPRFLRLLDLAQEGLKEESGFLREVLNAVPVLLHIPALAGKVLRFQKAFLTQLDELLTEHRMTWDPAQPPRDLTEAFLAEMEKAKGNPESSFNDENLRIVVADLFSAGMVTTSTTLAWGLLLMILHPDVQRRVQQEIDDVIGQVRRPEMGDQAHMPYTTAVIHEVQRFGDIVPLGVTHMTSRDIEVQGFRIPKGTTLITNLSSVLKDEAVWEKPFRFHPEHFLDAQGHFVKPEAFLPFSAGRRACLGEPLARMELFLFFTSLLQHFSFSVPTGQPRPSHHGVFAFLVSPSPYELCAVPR

CYP1A2 [6] = molecular target: T4, CYP1A2; assay: CYP1A2 inhibition assay, human liver microsomes, phenacetin probe (cocktail); settings: Table 8, thiophene and furan analogues
[7] = IC50 against CYP2A6, human liver microsomes
[8] = pH 7.4, half-life (T1/2) in human liver microsomes
[9] = IC50 against CYP2A6 (μM), Table 5, alkyne linker agents, pooled human liver microsomes, coumarin […]
[10] = IC50 against UGT2B10 (μM), Table 9, pooled human liver microsomes, nicotine 500 μM
[11] = pH 7.4, T1/2 (min) in human liver microsomes
[12] = Table 8, thiophene and furan analogues

## Cc1ccncc1C#CCN [Compound C, 3-(4-methylpyridin-3-yl)prop-2-yn-1-amine]
CYP2A6 [1]
  IC50: 0.055 µM
CYP2A6 [2]; IC50 against CYP2A6
  IC50: < 1 µM
UGT2B10; IC50 against UGT2B10
  IC50: < 60 µM
UGT2B10; IC50 against UGT2B10 (μM)
  IC50: 58 µM
In vitro
  T1/2 (min) in human liver microsomes: 8.4 min
  half-life (T1/2) in human liver microsomes: less than 25 minutes

## NCC#Cc1cnccc1-c1cncnc1 [Compound Q, 3-(4-(Pyrimidin-5-yl)pyridin-3-yl)prop-2-yn-1-amine Trihydrochloride]
CYP2A6 [1]
  IC50: 2.7 µM
CYP2A6 [2]; [7]
  IC50: < 10 µM
In vitro; 10 μM
  T1/2 (min) in human liver microsomes: >120 min
In vitro; [8]
  half-life at 10 μM: > 90 min

## NCC#Cc1cnccc1-c1ccncc1 [Compound P, 3-([4,4′-Bipyridin]-3′-yl)prop-2-yn-1-amine Trihydrochloride]
CYP2A6 [1]
  IC50: 3.6 µM
CYP2A6 [2]; [7]
  IC50: < 10 µM
In vitro; 10 μM
  T1/2 (min) in human liver microsomes: 36 min

## Cc1cncc(C#CCN)c1 [Compound D, 3-(5-methylpyridin-3-yl)prop-2-yn-1-amine]
CYP2A6 [3]
  IC50: 10 µM
UGT2B10; IC50 against UGT2B10
  IC50: > 1000 µM
UGT2B10; IC50 against UGT2B10 (μM)
  IC50: > 1000 µM

## NCc1ccc(-c2cnccc2-c2cncnc2)s1 [Compound AL, (5-(4-(Pyrimidin-5-yl)pyridin-3-yl)thiophene-2-yl)methanamine Trihydrochloride]
CYP2A6 [1]
  IC50: 1.2 µM
In vitro; 10 μM
  T1/2 (min) in human liver microsomes: >120 min
In vitro; [8]
  half-life at 10 μM: > 90 min

## NCC#Cc1cnccc1-c1ccco1 [Compound M, 3-(4-Furan-2-yl-pyridin-3-yl)-prop-2-ynylamine Dihydrochloride]
CYP2A6 [1]
  IC50: 0.56 µM
CYP2A6 [2]; [7]
  IC50: < 1 µM

## NCc1ccc(-c2cnccc2-c2ccncc2)s1 [Compound AJ, (5-([4,4′-Bipyridin]-3′-yl)thiophene-2-yl)methanamine Trihydrochloride]
CYP2A6 [1]
  IC50: 0.33 µM
In vitro; 10 μM
  T1/2 (min) in human liver microsomes: 32 min

## NCC#Cc1cnc2ccccc2c1 [Compound B, 3-(quinolin-3-yl)prop-2-yn-1-amine]
CYP2A6 [2]; [9]
  IC50: > 10 µM
UGT2B10; [10]
  IC50: > 1000 µM
UGT2B10; IC50 against UGT2B10, little to no inhibition
  IC50: > 1000 µM

## CCc1ccncc1C#CCN [Compound H, 3-(4-ethylpyridin-3-yl)prop-2-yn-1-amine]
CYP2A6 [1]
  IC50: 0.83 µM
CYP2A6 [2]; IC50 against CYP2A6
  IC50: < 1 µM
UGT2B10; IC50 against UGT2B10
  IC50: > 1000 µM
UGT2B10; IC50 against UGT2B10 (μM)
  IC50: > 1000 µM
In vitro
  T1/2 (min) in human liver microsomes: 9.8 min
  half-life (T1/2) in human liver microsomes: less than 25 minutes

## NCc1ccc(-c2cnccc2-c2cncnc2)o1 [Compound AK, (5-(4-(Pyrimidin-5-yl)pyridin-3-yl)furan-2-yl)methanamine Trihydrochloride]
CYP2A6 [1]
  IC50: 1.3 µM
In vitro; 10 μM
  T1/2 (min) in human liver microsomes: >120 min
In vitro; [8]
  half-life at 10 μM: > 90 min

## NCC#Cc1cncc2ccccc12 [Compound A, 3-(isoquinolin-4-yl)prop-2-yn-1-amine Dihydrochloride]
CYP2A6 [2]; [9]
  IC50: > 10 µM
UGT2B10; [10]
  IC50: 770 µM

## NCc1ccc(-c2cnccc2-c2cccnc2)o1 [Compound AG, (5-([3,4′-Bipyridin]-3′-yl)furan-2-yl)methanamine Trihydrochloride]
CYP2A6 [1]
  IC50: 0.38 µM
In vitro; 10 μM
  T1/2 (min) in human liver microsomes: >120 min
In vitro; [8]
  half-life at 10 μM: > 90 min

## Cc1ncccc1C#CCN [Compound F, 3-(2-methylpyridin-3-yl)prop-2-yn-1-amine]
CYP2A6 [2]; [9]
  IC50: > 10 µM
UGT2B10; [10]
  IC50: 286 µM

## NCC#Cc1cnccc1Cl [Compound L, 3-(4-chloropyridin-3-yl)prop-2-yn-1-amine Dihydrochloride]
CYP2A6 [1]; CYP2A6
  IC50 fold lower than that observed for the reference agent: 1.2 fold
CYP2C8; Table 6
  IC50 ratio CYP2C8/CYP2A6: >192
[4]
  IC50 ratio CYPhepatic/CYP2A6 against all hepatic CYP enzymes tested: > 25
CYP2A6 [2]; [9]
  IC50: 0.13 µM
CYP2A6 [2]; [7]
  IC50: < 1 µM
CYP2E1; Table 6
  IC50 ratio CYP2E1/CYP2A6: 10
CYP1A2 [5]
  IC50 ratio CYP1A2/CYP2A6: 33
CYP2C9; Table 6
  IC50 ratio CYP2C9/CYP2A6: >385
CYP2B6; Table 6
  IC50 ratio CYP2B6/CYP2A6: 24
In vitro; [11]
  half-life at 10 μM: 28 min
CYP2C19; Table 6
  IC50 ratio CYP2C19/CYP2A6: 61
CYP2D6; Table 6
  IC50 ratio CYP2D6/CYP2A6: 29

## NCc1ccc(-c2cnccc2Cl)s1 [Compound AB, (5-(4-chloropyridin-3-yl)thiophene-2-yl)methanamine Dihydrochloride]
CYP2C8; [12]
  IC50 ratio CYP2C8/CYP2A6: 227
CYP2A6 [2]; IC50 against CYP2A6 (μM), Table 7, thiophene and furan nicotine analogues, pooled human liver microsomes, coumarin
  IC50: 0.11 µM
CYP2E1; [12]
  IC50 ratio CYP2E1/CYP2A6: 47
CYP2C9; [12]
  IC50 ratio CYP2C9/CYP2A6: 182
CYP2B6; [12]
  IC50 ratio CYP2B6/CYP2A6: 7.4
CYP1A2 [6]
  IC50 ratio CYP1A2/CYP2A6: 17
In vitro; [11]
  half-life at 10 μM: 11 min
In vitro; [8]
  half-life at 10 μM: < 25 min
CYP2C19; [12]
  IC50 ratio CYP2C19/CYP2A6: 6.8
CYP2D6; [12]
  IC50 ratio CYP2D6/CYP2A6: 71
